In experiment [1] the target is T1, Alpha-2A adrenergic receptor (Homo sapiens, UniProt P08913).
T1 sequence (P08913 whole entry): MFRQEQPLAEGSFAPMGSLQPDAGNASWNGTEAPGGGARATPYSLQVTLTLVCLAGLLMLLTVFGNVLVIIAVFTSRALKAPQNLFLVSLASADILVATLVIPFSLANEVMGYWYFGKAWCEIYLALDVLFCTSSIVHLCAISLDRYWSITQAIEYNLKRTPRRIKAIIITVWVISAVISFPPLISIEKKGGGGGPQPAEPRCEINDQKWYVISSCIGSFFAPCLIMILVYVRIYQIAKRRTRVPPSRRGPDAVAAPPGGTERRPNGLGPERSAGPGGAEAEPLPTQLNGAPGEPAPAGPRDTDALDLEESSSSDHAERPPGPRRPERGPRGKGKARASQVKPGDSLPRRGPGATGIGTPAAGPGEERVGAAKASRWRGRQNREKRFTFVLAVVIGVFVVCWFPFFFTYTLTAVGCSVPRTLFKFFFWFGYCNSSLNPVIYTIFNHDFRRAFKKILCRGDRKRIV
The experiment is classed as functional, cell-based.

The target in experiment [2] is Beta-1 adrenergic receptor (Homo sapiens, UniProt P08588). The experiment is classed as functional.
Sequence of Beta-1 adrenergic receptor (P08588 whole entry): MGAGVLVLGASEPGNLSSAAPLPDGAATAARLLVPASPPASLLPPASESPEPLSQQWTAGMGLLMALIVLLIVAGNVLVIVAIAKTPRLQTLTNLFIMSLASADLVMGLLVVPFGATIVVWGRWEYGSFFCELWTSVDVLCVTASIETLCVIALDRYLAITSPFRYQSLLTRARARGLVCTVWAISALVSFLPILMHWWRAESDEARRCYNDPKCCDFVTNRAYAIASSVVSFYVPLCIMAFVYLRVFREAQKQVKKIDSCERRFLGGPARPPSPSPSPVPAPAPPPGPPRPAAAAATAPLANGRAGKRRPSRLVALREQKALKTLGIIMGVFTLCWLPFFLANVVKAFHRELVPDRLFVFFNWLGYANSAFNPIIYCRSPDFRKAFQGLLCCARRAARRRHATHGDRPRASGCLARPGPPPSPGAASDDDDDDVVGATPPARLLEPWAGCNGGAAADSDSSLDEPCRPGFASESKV
A further experiment concerns the target Vasopressin V2 receptor (Homo sapiens, UniProt P30518).
In experiment [3] the target is T2, Cholecystokinin receptor type A (Homo sapiens, UniProt P32238).
T2 sequence (P32238 whole entry): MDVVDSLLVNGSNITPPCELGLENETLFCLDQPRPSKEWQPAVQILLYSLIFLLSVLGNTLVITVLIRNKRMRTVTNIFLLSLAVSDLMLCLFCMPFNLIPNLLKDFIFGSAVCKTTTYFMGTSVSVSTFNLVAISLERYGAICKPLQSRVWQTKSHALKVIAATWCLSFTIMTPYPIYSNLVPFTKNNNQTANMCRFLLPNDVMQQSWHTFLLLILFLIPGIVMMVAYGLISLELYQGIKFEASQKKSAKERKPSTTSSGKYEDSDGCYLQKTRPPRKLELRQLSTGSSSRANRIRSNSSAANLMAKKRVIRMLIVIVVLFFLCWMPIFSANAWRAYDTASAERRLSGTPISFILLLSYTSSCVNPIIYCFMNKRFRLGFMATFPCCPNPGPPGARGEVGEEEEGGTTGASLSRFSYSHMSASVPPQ

Experiment [4] deals with T3, Muscarinic acetylcholine receptor M2 (Homo sapiens, UniProt P08172).
T3 sequence (P08172 whole entry): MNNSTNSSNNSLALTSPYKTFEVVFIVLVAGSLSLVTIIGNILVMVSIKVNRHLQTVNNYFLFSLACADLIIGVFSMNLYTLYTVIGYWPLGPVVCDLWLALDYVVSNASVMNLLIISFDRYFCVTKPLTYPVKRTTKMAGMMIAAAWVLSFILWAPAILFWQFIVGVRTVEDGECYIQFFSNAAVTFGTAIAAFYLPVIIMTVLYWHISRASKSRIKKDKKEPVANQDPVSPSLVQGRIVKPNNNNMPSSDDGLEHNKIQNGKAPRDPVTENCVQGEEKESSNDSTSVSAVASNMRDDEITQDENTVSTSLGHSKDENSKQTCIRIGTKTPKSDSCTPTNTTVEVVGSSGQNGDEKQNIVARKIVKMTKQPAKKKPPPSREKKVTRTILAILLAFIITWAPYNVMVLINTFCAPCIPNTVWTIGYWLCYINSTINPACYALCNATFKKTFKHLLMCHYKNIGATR
The experiment is classed as functional, cell-based.

The target in experiment [5] is T3, Muscarinic acetylcholine receptor M2. The experiment is classed as functional, cell-based. The source holds these as a separate data set.
In experiment [6] the target is Gamma-aminobutyric acid receptor subunit alpha-1 (Rattus norvegicus, UniProt P62813).
Sequence of Gamma-aminobutyric acid receptor subunit alpha-1 (P62813 whole entry): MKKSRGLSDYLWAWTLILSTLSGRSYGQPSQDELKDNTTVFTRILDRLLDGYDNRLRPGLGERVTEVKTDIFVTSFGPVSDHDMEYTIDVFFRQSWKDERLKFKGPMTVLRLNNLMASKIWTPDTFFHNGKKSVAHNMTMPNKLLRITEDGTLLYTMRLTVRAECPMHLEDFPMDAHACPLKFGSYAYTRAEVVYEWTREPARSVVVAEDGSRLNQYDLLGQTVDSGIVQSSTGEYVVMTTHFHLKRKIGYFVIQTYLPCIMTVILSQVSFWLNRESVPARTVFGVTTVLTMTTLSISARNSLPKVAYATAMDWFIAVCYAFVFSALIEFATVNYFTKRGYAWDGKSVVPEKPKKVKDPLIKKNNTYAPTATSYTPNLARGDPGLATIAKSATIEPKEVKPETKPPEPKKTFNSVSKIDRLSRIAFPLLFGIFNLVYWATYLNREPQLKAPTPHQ
The target of experiment [7] is Growth hormone secretagogue receptor type 1 (Homo sapiens, UniProt Q92847).
Sequence of Growth hormone secretagogue receptor type 1 (Q92847 whole entry): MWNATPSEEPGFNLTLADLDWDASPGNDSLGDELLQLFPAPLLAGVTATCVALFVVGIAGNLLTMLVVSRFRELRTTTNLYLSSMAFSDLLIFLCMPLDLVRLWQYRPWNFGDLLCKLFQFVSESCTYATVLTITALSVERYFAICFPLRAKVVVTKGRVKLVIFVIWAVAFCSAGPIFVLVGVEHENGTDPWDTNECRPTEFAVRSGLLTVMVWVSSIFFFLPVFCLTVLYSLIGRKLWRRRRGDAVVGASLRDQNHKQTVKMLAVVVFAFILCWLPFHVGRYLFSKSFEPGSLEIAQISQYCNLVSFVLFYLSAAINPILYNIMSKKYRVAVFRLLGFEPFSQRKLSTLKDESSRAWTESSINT
The target in experiment [8] is Glutamate receptor ionotropic, NMDA 1 (Rattus norvegicus, UniProt P35439).
Experiment [9] addresses 5-hydroxytryptamine receptor 2B (Homo sapiens, UniProt P41595). The experiment is classed as functional, cell-based.
In experiment [10] the target is Voltage-gated inwardly rectifying potassium channel KCNH2 (Homo sapiens, UniProt Q12809). The experiment is classed as functional.
Sequence of Voltage-gated inwardly rectifying potassium channel KCNH2 (Q12809 whole entry): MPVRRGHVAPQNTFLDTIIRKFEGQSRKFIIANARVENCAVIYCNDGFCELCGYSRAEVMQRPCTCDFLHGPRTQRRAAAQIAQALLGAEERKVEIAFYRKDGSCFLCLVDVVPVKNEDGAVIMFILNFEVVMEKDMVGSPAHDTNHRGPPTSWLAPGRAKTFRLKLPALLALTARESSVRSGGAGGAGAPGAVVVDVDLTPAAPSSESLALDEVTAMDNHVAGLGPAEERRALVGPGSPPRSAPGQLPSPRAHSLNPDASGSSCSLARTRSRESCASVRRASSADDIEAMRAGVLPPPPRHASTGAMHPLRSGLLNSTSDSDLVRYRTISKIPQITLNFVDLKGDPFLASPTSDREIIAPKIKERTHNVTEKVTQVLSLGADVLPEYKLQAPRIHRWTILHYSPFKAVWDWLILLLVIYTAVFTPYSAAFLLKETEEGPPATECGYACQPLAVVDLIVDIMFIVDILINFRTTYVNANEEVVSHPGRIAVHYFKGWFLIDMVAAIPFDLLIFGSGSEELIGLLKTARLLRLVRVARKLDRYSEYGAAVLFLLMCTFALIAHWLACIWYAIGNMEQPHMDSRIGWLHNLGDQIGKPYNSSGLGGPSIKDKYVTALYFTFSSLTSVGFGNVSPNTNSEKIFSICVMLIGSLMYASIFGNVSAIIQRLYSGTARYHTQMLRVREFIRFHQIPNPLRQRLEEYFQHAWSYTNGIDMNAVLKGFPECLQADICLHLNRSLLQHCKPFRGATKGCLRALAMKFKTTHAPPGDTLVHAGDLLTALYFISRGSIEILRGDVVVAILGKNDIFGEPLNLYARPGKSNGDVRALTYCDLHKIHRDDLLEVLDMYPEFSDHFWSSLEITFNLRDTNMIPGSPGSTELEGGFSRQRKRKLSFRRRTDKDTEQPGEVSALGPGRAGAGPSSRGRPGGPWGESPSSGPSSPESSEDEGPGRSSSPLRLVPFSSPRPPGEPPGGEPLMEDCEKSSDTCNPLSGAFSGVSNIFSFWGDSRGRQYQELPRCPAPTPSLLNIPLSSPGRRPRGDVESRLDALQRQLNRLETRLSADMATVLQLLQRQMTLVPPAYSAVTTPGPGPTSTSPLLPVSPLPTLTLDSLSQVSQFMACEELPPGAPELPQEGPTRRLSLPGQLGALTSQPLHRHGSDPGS
Experiment [11] concerns the target Delta-type opioid receptor (Homo sapiens, UniProt P41143).
The target in experiment [12] is 3',5'-cyclic-AMP phosphodiesterase 4D (Homo sapiens, UniProt Q08499). The experiment is classed as functional.
Sequence of 3',5'-cyclic-AMP phosphodiesterase 4D (Q08499 whole entry): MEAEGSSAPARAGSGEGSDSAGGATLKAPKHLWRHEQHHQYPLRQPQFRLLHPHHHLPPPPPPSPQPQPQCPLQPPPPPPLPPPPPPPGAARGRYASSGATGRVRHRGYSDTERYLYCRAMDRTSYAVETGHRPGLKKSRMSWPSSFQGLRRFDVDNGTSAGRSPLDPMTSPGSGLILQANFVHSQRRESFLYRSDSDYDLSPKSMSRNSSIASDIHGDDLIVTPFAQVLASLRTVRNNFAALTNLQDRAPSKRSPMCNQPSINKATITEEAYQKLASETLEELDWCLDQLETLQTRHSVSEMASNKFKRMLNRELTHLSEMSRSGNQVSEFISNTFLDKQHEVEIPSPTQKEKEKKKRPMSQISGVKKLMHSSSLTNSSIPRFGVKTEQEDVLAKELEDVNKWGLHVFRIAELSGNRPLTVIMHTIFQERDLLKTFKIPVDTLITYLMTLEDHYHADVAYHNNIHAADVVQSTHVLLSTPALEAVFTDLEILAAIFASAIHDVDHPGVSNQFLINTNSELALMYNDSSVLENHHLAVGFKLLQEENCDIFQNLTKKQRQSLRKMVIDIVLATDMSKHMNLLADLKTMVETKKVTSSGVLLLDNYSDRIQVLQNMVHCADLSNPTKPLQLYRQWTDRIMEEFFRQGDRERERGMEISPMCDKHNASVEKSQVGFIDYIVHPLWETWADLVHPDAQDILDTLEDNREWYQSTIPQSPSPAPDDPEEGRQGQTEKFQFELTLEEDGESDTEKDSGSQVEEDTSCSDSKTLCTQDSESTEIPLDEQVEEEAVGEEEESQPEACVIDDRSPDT
Experiment [13] addresses T4, Equilibrative nucleoside transporter 1 (Homo sapiens, UniProt Q99808).
T4 sequence (Q99808 whole entry): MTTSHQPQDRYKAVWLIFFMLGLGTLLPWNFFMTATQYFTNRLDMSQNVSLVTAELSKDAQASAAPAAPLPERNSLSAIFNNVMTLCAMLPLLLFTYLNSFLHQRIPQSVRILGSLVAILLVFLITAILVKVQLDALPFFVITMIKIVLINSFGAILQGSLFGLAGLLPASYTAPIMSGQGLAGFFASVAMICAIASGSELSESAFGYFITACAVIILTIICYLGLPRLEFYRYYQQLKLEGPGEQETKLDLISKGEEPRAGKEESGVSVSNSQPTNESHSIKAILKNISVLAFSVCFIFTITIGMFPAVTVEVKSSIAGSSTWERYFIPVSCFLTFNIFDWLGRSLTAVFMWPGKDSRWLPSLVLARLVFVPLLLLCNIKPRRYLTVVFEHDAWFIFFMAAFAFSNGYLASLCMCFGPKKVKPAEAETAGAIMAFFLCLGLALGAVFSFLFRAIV

Each structure is given as a SMILES string. Bounds are passed on as bounds.
Also: assay procedure not described here.

Sequence of 5-hydroxytryptamine receptor 2B (P41595 whole entry): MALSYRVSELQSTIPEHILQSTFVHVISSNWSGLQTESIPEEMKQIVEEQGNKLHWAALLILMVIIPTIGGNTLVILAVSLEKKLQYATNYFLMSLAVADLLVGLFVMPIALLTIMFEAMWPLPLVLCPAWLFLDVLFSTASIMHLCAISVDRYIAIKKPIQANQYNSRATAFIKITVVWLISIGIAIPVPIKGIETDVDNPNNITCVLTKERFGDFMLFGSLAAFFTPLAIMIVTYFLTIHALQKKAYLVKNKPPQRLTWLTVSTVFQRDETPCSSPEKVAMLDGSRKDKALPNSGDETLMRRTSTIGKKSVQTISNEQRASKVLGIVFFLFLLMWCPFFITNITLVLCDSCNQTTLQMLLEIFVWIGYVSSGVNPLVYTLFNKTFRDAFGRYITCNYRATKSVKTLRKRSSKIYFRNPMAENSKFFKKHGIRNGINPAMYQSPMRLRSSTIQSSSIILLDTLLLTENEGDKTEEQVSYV
Sequence of Vasopressin V2 receptor (P30518 whole entry): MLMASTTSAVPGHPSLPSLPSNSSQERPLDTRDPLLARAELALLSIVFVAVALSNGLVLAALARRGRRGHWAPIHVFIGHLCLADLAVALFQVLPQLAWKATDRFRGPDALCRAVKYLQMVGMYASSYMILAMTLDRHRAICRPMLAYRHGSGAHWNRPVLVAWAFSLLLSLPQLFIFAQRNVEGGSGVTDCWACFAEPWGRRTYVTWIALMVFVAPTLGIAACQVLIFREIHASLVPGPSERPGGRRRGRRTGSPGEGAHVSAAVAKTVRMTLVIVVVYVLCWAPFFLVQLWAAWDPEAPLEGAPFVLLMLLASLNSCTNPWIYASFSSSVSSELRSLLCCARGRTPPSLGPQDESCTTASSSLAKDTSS
Sequence of Delta-type opioid receptor (P41143 whole entry): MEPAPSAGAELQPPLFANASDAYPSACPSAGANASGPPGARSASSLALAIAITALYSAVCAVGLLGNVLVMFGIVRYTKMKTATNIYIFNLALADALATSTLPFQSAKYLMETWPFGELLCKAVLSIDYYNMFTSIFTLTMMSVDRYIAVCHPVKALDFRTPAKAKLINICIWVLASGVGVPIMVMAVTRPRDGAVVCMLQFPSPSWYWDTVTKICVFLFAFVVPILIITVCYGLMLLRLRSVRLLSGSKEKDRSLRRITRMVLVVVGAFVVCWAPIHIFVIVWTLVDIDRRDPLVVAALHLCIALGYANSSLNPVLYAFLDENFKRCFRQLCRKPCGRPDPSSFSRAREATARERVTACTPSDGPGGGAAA

Take `COc1cc(C(=O)OCc2cccc(COC(=O)c3cc(OC)c(OC)c(OC)c3)n2)cc(OC)c1OC` [PIROZADIL]: the AC50 (in [1]; in experiment [2]; on Vasopressin V2 receptor; in experiment [3]; in experiment [4]; in experiment [5]) was greater than 30 µM in each case. The AC50 in [6], in experiment [7], in experiment [8], in [9], in experiment [10] and in experiment [11] was greater than 30 µM in each case. In addition, the AC50 in experiment [12] and in experiment [13] was greater than 30 µM each time.

With `CCCN(CCC)S(=O)(=O)c1ccc(C(=O)O)cc1` [PROBENECID], the AC50 (in experiment [1]; in experiment [2]; on Vasopressin V2 receptor; in experiment [3]; in experiment [4]; in [5]) was greater than 10 µM in each case. The AC50 is greater than 10 µM in [6]; greater than 10 µM in experiment [7]; greater than 10 µM in [8]; greater than 10 µM in experiment [9]; greater than 30 µM in experiment [10]; greater than 30 µM in experiment [11]. The AC50 in experiment [12] was greater than 30 µM; in [13], greater than 10 µM.

For `CCC(NC(C)C)C(O)c1ccc(O)c2[nH]c(=O)ccc12` (stereo not given) [PROCATEROL], the AC50 in [1] is greater than 30 µM; in experiment [2], 17 µM; on Vasopressin V2 receptor, greater than 30 µM; in experiment [3], greater than 30 µM; in experiment [4] it was greater than 30 µM; in experiment [5] it was greater than 30 µM. The AC50 in [6], in experiment [7], in experiment [8], in experiment [9], in experiment [10] and in experiment [11] was greater than 30 µM throughout. For the same compound, the AC50 in [12] and in [13] was greater than 30 µM throughout.

As to `CCC(=O)O[C@](Cc1ccccc1)(c1ccccc1)[C@H](C)CN(C)C` [PROPOXYPHENE], the AC50 is greater than 10 µM in experiment [1]; greater than 10 µM in experiment [2]; greater than 30 µM at Vasopressin V2 receptor; greater than 30 µM in [3]; greater than 10 µM in experiment [4]; greater than 10 µM in [5]. Further, the AC50 in [6] is greater than 10 µM; in experiment [7], greater than 30 µM; in experiment [8], greater than 10 µM; in experiment [9] it was greater than 10 µM; in experiment [10], 1.74 µM; in experiment [11], 11 µM. The AC50 in experiment [12] and in experiment [13] was greater than 30 µM each time.

`CCc1nc(N)nc(N)c1-c1ccc(Cl)cc1` [PYRIMETHAMINE]: the AC50 is greater than 30 µM in experiment [1]; greater than 10 µM in experiment [2]; greater than 10 µM on Vasopressin V2 receptor; greater than 10 µM in experiment [3]; greater than 10 µM in experiment [4]; greater than 10 µM in [5]. Further, the AC50 is greater than 10 µM in [6]; greater than 10 µM in experiment [7]; greater than 10 µM in experiment [8]; 37 µM in experiment [9]; 0.649 µM in [10]; greater than 30 µM in experiment [11]. The AC50 in [12] is 12 µM; in experiment [13] it was greater than 30 µM.

Take `C=CC[N+]1([C@H]2C[C@H]3[C@@H]4CC[C@H]5C[C@H](O)[C@@H](N6CCOCC6)C[C@]5(C)[C@H]4CC[C@]3(C)[C@H]2OC(C)=O)CCCC1` [ROCURONIUM]: the AC50 (in experiment [1]; in [2]; on Vasopressin V2 receptor; in experiment [3]; in experiment [4]; in experiment [5]) was greater than 30 µM throughout. Moreover, the concentration at half-maximal activity (AC50) in experiment [6] was greater than 30 µM; in experiment [7], greater than 30 µM; in experiment [8], greater than 30 µM; in experiment [9], greater than 30 µM; in [10] it was 1.06 µM; in experiment [11], greater than 30 µM. For the same compound, the AC50 in experiment [12] and in experiment [13] was greater than 30 µM in each case.

As to `CCCN1CCCC[C@H]1C(=O)Nc1c(C)cccc1C` [ROPIVACAINE], the AC50 (in experiment [1]; in experiment [2]; at Vasopressin V2 receptor; in [3]; in experiment [4]; in experiment [5]) was greater than 30 µM each time. The AC50 in experiment [6], in [7], in experiment [8], in [9], in experiment [10] and in [11] was greater than 30 µM in each case. Moreover, the AC50 in [12] and in [13] was greater than 30 µM throughout.

In the case of `Cc1cc(C)nc(NS(=O)(=O)c2ccc(N)cc2)n1` [SULFAMETHAZINE], the AC50 (in experiment [1]; in experiment [2]; on Vasopressin V2 receptor; in [3]; in experiment [4]; in experiment [5]) was greater than 10 µM in each case. The AC50 in experiment [6] is greater than 10 µM; in [7], greater than 10 µM; in [8] it was greater than 10 µM; in experiment [9] it was greater than 10 µM; in experiment [10], greater than 30 µM; in experiment [11] it was greater than 30 µM. Moreover, the AC50 in experiment [12] is greater than 30 µM; in experiment [13] it was greater than 10 µM.

For the compound `CCOC(=O)c1ccc(C#Cc2ccc3c(c2)C(C)(C)CCS3)nc1` [TAZAROTENE], the AC50 is greater than 10 µM in experiment [1]; greater than 10 µM in experiment [2]; greater than 30 µM on Vasopressin V2 receptor; greater than 30 µM in [3]; greater than 10 µM in experiment [4]; greater than 10 µM in experiment [5]. Besides, the AC50 in experiment [6] was greater than 10 µM; in [7] it was greater than 30 µM; in [8], greater than 10 µM; in experiment [9], greater than 10 µM; in experiment [10], greater than 30 µM; in [11], greater than 30 µM. Moreover, the AC50 in [12] and in experiment [13] was greater than 30 µM in each case.

Take `CCOC(=O)[C@@H](N)Cc1ccc(-c2cc(O[C@H](c3ccc(Cl)cc3-n3ccc(C)n3)C(F)(F)F)nc(N)n2)cc1` [TELOTRISTAT ETHYL]: the AC50 was greater than 30 µM in experiment [1]; greater than 30 µM in experiment [2]; greater than 30 µM at Vasopressin V2 receptor; 10 µM in experiment [3]; greater than 30 µM in experiment [4]; greater than 30 µM in [5]. The concentration at half-maximal activity (AC50) in experiment [6] is greater than 30 µM; in [7], 28 µM; in experiment [8], greater than 30 µM; in [9], greater than 30 µM; in experiment [10], 26 µM; in experiment [11], greater than 30 µM. Moreover, the AC50 in experiment [12] was 5 µM; in experiment [13] it was greater than 30 µM.
